Patent US6030980A, “Agent for the treatment of infections” (priority 1994, dated 2000)

Experiments:
[1] = tested on: herpes simplex virus type I; test: animal or person; type: in vivo, BALB/c male mice; conditions: thermally injured mice, HSV type I 3×10^3 PFU/kg i.p., oral 1 μg/kg of aconite-alkaloid; for responders at 0.001 mg/kg: Mus musculus, 600 h, read-out: survival rate; for average survival days: 25 days
[2] = tested on: suppressor cell activities induced in thermally injured mice; type: cell-based, BALB/c mice; conditions: 1 μg/kg of aconite-alkaloid given twice to contrasuppressor cell donors; normal model 12413 ± 1438, susceptibility model 2650 ± 70
[3] = Acute toxicity of aconite-alkaloids; conditions: in vivo
[4] = tested on: AIDS virus (LP-BM5 virus); test: Survival of opportunistic infection model mice infected with AIDS virus (LP-BM5 virus) (Experimental Example 3); type: in vivo; conditions: 1 μg/kg oral, observed for 150 days, saline 0%
Description: Mice as opportunistic infection model inoculated intraperioneally with 0.1 ml/mouse of a culture supernatant of AIDS virus (LP-BM5 virus) infected SC-1 cells were orally given benzoylmesaconine or physiological saline.

[5] = tested on: suppressor cell activities; test: Contrasuppressor cell activities in MLTR, suppressor cells from LP-BM5 virus infected mice; type: cell-based; conditions: 1 μg/kg, suppressor cells from mice 110 days after infection with LP-BM5 virus
Description: Contrasuppressor cell activities, i.e. cells activities suppressing the suppressor cell activities induced in thermally injured mice were determined in mixed lymphocyte tumor cell reaction (MLTR) by mixing and incubating the following cells for 5 days in a 96-wells round-bottom microplate.
Reaction cells: Spleen mononuclear cells (referred to hereinafter as SMNCs) (5.0×10^4 cells/well) obtained from normal BALB/c mice.
Stimulator cells: EL-4 tumor cells (5.0×10^4 cells/well).
Suppressor cells: SMNCs (2.5×10^5 cells/well) obtained from the model of increased susceptibility to infections. […]
Before incubation, the cells except for the reaction cells were treated with 40 μg/ml of mitomycin C solution at 37° C. for 30 minutes. Twenty-four hours before the conclusion of 3-days incubation, 0.5 μCi/well of ^3 H-thymidine was added to the well, and the amount of ^3 H-thymidine incorporated into the reaction cells was determined in a liquid scintillation counter to evaluate the contrasuppressor cell activities induced against the suppressor cell activities by administration of the active ingredient of the present agent.
The contrasuppressor cell activities induced against suppressor cell activities by administration of benzoylmesaconine was evaluated in the same manner as in "(3) Measurement of contrasuppressor cell activities" in Experimental Example 1. […]

cytomegalovirus (CMV) = test: Survival of thermally injured mice infected with cytomegalovirus (Experimental Example 7); conditions: CMV 2.5×10^3 PFU/mouse i.v., 10 μg/kg/day oral, 25 days
CMV = conditions: SCID mice, 10 μg/kg/day oral
[6] = tested on: herpes simplex virus type I; test: Survival of mice infected with a lethal dose of herpes simplex virus type I (Experimental Example 2); type: in vivo, BALB/c mice; conditions: HSV type I 3×10^5 PFU/kg i.p., 10 μg/kg oral, before and after infection
Description: In this example, 7-week-old BALB/c mice were infected intraperioneally with a lethal dose (3×10^5 PFU/kg) of herpes simplex virus type I. Two days before the infection, 1 day and 4 days after the infection, the active ingredient of the present agent (10 μg/kg) or physiological saline (control) was orally administered through a stomach probe into the mice. Twenty-five days after the infection, their survival rate was determined to evaluate the action of the active ingredient. In this experiment, the experimental mice were given the active ingredient of the present agent before and after infection with the virus to evaluate its action mainly on the prevention and treatment of the virus infection.

[7] = J. Pharm. Dyu.7, 836-848 (1984); cited from earlier work
[8] = twenty-five days after infection

SMILES	responders at 0.001 mg/kg [1, 8]	average survival days [1]	incorporation of ^3 H-thymidine [2]	LD50 [3]	further results
CCN1CC2(COC)C(O)CC(OC)C34C5CC6(O)C(OC)C(O)C(O)(C5C6OC(=O)c5ccc(OC)cc5)C(C(OC)C23)C14 (centres unmarked) [14-anisoylaconine]	80%	> 22.5 days	12720 ± 1578 CPM ± SE	20 to 500 mg/kg	
CCN1CC2(COC)C(O)CC(OC)C34C5CC6(O)C(OC)C(=O)C(C5C6OC(=O)c5ccccc5)C(C(OC)C23)C14 (stereo not drawn) [16-epi-pyraconitine]	70%	> 21.2 days	15654 ± 1209 CPM ± SE	20 to 500 mg/kg	
COCC12CN(C)C3C4C(OC)C1C3(C(OC)CC2O)C1CC2(O)C(OC)C(=O)C4C1C2OC(=O)c1ccccc1 (stereo not drawn) [16-epi-pyromesaconitine]	80%	> 22.4 days	16891 ± 2232 CPM ± SE	20 to 500 mg/kg	
C=C1C2CCC3(C4CC5C6(C)CCCC5(C(O4)N(CCO)C6)C3C2)C1O (centres unmarked) [ajaconine]	80%	> 22.3 days	17655 ± 1879 CPM ± SE	20 to 500 mg/kg	
CCN1CC2(COC)C(O)CC(OC)C34C5CC6(O)C(OC)C(O)C(O)(C5C6OC(=O)c5ccccc5)C(C(OC)C23)C14 (centres unmarked) [benzoylaconine]	80%	> 22.5 days	16140 ± 1738 CPM ± SE	20 to 500 mg/kg	
COCC12CCC(OC)C34C5CC6(O)C(OC)C(O)C(O)(C5C6OC(=O)c5ccccc5)C(C(OC)C13)C4N(C)C2 (centres unmarked) [benzoylhypaconine]	80%	> 22.4 days	21319 ± 903 CPM ± SE	20 to 500 mg/kg	
COCC12CN(C)C3C4C(OC)C1C3(C(OC)CC2O)C1CC2(O)C(OC)C(O)C4(O)C1C2OC(=O)c1ccccc1 (centres unmarked) [benzoylmesaconine]	85%	> 21.5 days	14754 ± 1832 CPM ± SE	20 to 500 mg/kg	survival rate [4]: 80%; suppressing rate ([5]; saline 81%): 4%; incorporation of ^3 H-thymidine ([5]; saline 1,730 ± 289): 8,826 ± 535 CPM ± SE; survival rate (cytomegalovirus (CMV); saline 0%): 100%; average survival days (cytomegalovirus (CMV); saline 12.4): > 22.1 days; survival rate (CMV; CMV 2.5×10^3 PFU/mouse, saline 0%): 100%; protective effect on CMV (CMV): protective effect
CCCCC[C@H](O)CC(=O)CCc1ccc(O)c(OC)c1 [gingerol]					average survival days ([6]; 25 days): > 24.4 days; survival rate [6, 8]: 90%; acute toxicity LD50 [7]: about 250 mg/kg
COCC12CCC(OC)C34C5CC6(O)C(O)C5C(O)(C(O)C6OC)C(C(OC)C13)C4N(C)C2 (centres unmarked) [hypaconine]	85%	> 23.1 days	14111 ± 2232 CPM ± SE	20 to 500 mg/kg	
C=C1[C@H]2C[C@@H]3[C@H]4N5C[C@@]6(C)[C@H]7[C@@H]5C[C@]3([C@@H]1O)[C@@](O)(C2)[C@]74C[C@@H](OC(=O)c1ccccc1)[C@@H]6O [ignavine]		> 21.9 days	12831 ± 2255 CPM ± SE		survival rate [1, 8]: 75%
COCC12CN(C)C3C4C(OC)C1C3(C(OC)CC2O)C1CC2(O)C(O)C1C4(O)C(O)C2OC (centres unmarked) [mesaconine]	85%	> 23.1 days	15791 ± 2778 CPM ± SE	20 to 500 mg/kg	
CCN1CC2(COC)CCC(O)C34C5CC6C(OC)CC(O)(C5C6O)C(C(OC)C23)C14 (centres unmarked) [neoline]	80%	> 22.3 days	13744 ± 526 CPM ± SE	20 to 500 mg/kg	
